The structures appear in SMILES notation. Inconclusive results are not listed. Calls of active or inactive are those of the source.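 How the source made its calls: active means Compounds that reduce signal, with fitted half-maximal dose at or under twice the top valid tested dose; inconclusive means Poor fit, or flat curve losing 30 to 70% of signal; inactive means Potency past limit, flat within 30%, or opposite direction.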

The first assay in a line: viability loss in HEK293T cells – cell-based, ATP luminescence, cherry-pick samples, cytotoxicity control, dose response (AID 687005). The conditions noted are these: HEK293T viability, ATP luminescence (CellTiter-Glo), 48 h; at 23.5 µM (top of the series).
With `CC(C)NC(=O)Nc1cccc2c1O[C@H](CN(C)C)[C@H](C)CN([C@H](C)CO)C2=O`, the activity change, negative = cytotoxicity was 7.48% (inactive). Consider `CN1c2ccc(Br)cc2[C@@H]2[C@@H](CCN2C(=O)Cc2cccnc2)[C@@H]1CO`, for which the activity change, negative = cytotoxicity was -13.9% (inactive).

With `Cc1noc(C)c1NC(=O)N(C)C[C@H]1Oc2ccc(NS(=O)(=O)c3cn(C)cn3)cc2CC(=O)N([C@H](C)CO)C[C@H]1C`, the activity change, negative = cytotoxicity was -32.1% (inactive). In the case of `N#Cc1ccc(-c2ccc3c(c2)[C@@H]2[C@@H](CCN2C(=O)Cc2ccccc2)[C@@H](CO)N3)cc1`, the activity change, negative = cytotoxicity was -19.6% (inactive).

Take `CN1c2ccc(-c3ccc(F)cc3)cc2[C@H]2[C@H](CCN2S(=O)(=O)c2cccc(F)c2)[C@H]1CO`: the activity change, negative = cytotoxicity was -32.1% (inactive).

Staying with this assay, now noted: HEK293T viability, ATP luminescence (CellTiter-Glo), 48 h; at 26 µM (top of the series).
For `C[C@H](CO)N1C[C@H](C)[C@H](CN(C)S(=O)(=O)c2ccccc2)Oc2ccc(NS(=O)(=O)c3ccc(F)cc3)cc2C1=O`, the activity change, negative = cytotoxicity is -25.5% (inactive).

With `CC=Cc1ccc2n(c1=O)C[C@@H]1[C@@H](CO)[C@H](C(=O)NCc3ccc4c(c3)OCO4)[C@H]2N1C(=O)C1CC1` (mixture of isomers), the activity change, negative = cytotoxicity is -8.54% (inactive). For the molecule `C[C@@H]1CCCCO[C@H](CN(C)C(=O)CCCN(C)C)[C@@H](C)CN([C@H](C)CO)C(=O)c2cc(NC(=O)Cc3ccccc3)ccc2O1`, the activity change, negative = cytotoxicity was 5.89% (inactive).

As to `O=C(Nc1ccc(F)cc1)N1C[C@@H]2[C@H](c3ccccc31)[C@H](CO)N2Cc1cocn1`, the activity change, negative = cytotoxicity was -11.6% (inactive). As to `O=C(NCC[C@H]1CC[C@@H](NS(=O)(=O)c2ccc(F)cc2)[C@H](CO)O1)c1ccc2c(c1)OCO2`, the activity change, negative = cytotoxicity is 1.86% (inactive). `C[C@H]1CN([C@@H](C)CO)C(=O)c2cccc(NS(C)(=O)=O)c2O[C@H]1CN(C)C(=O)Nc1ccc2c(c1)OCO2`: the activity change, negative = cytotoxicity was 20.3% (inactive). In the case of `COc1ccc(CN(C)C[C@@H]2Oc3ccc(NC(=O)C4CC4)cc3C(=O)N([C@H](C)CO)C[C@H]2C)cc1`, the activity change, negative = cytotoxicity was 15.3% (inactive). As to `CC(C)NC(=O)N[C@H]1CC[C@@H](CCNC(=O)C2CC2)O[C@@H]1CO`, the activity change, negative = cytotoxicity is -21.3% (inactive). Turning to `COC(=O)C1=C(C)N(Cc2ccccc2)C(=S)N[C@H]1c1cccc(C(F)(F)F)c1`, the activity change, negative = cytotoxicity is -25.6% (inactive). With `COCC(=O)N(C)C[C@H]1Oc2ncc(-c3ccccc3F)cc2C(=O)N([C@@H](C)CO)C[C@H]1C`, the activity change, negative = cytotoxicity is -32.3% (inactive). As for `O=C(c1ccco1)N1N=C(c2cccs2)CC1c1ccc(F)cc1` (stereo not drawn), the activity change, negative = cytotoxicity is -39% (inactive). Regarding `CC(C)NC(=O)NCC[C@@H]1CC[C@@H](NC(=O)CN(C)C)[C@@H](CO)O1`, the activity change, negative = cytotoxicity was 44.1% (inactive).

Regarding `CCC(=O)N1[C@H](CO)[C@H](c2ccccc2)[C@H]1CN(CC)C(=O)c1cccc(F)c1`, the activity change, negative = cytotoxicity is -0.378% (inactive). On to `C/C=C/c1cnc2c(c1)C(=O)N([C@@H](C)CO)C[C@@H](C)[C@@H](CN(C)C(=O)C1CCCCC1)O2`, for which the activity change, negative = cytotoxicity was 10.3% (inactive).

Turning to `COc1ccc(NC(=O)N(C)C[C@H]2OCCCC[C@@H](C)Oc3ccc(NC(=O)c4ccccc4)cc3C(=O)N([C@@H](C)CO)C[C@H]2C)cc1`, the activity change, negative = cytotoxicity was 7.8% (inactive).

For the molecule `C[C@@H]1CN([C@H](C)CO)C(=O)CCCn2cc(nn2)CO[C@@H]1CN(C)C(=O)CCCN(C)C`, the activity change, negative = cytotoxicity is -5.89% (inactive). Consider `Cc1cc(C(=O)Nc2ccc3c(c2)C(=O)N(C)[C@@H]2CC[C@@H](CC(=O)N[C@@H](C)c4ccccc4)O[C@@H]2CO3)no1`, for which the activity change, negative = cytotoxicity is -33.4% (inactive).

Staying with this assay, now noted: HEK293T viability, ATP luminescence (CellTiter-Glo), 48 h; at 28.5 µM (top of the series).
With `C[C@@H]1CN([C@@H](C)CO)C(=O)CCCn2cc(nn2)CO[C@@H]1CN(C)C(=O)CCCN(C)C`, the activity change, negative = cytotoxicity is 6.9% (inactive).
